Results from patent US12385839B2, “Use of protein in predicting drug properties” (priority 2021, dated 2025).
Values joined by “and” are separate entries in the source; they are usually repeats but may differ in a detail not shown here. Equal values may be shown once. Read-outs that look alike come from different tables or passages of the source.

Columns and labels:
[1] = target: T1, human serum albumin (HSA) (Homo sapiens, UniProt P02768); experiment: Fluorescence emission spectrum (quenching) of HSA with carbamate pesticides; format: binding; conditions: for R (binding distance): Förster energy transfer; for fluorescence of HSA quenched by pesticide: titration of pesticide; for ΔH^0 / ΔS^0: Van't Hoff, 296-310 K
Procedure: the mixed solution to be tested was preheated at […] for 3 minutes, and the emission spectrum of HSA with carbamate pesticides was measured at 300-500 nm . The excitation wavelength was set at 280 nm , and the slit width for both excitation and emission was 15 nm; the HSA concentration was kept constant at 5×10^−7 M, and the pesticide concentration was (0-105)×10^−7 M.
The internal filtering effect of fluorescence signal was corrected according to the following formula: Fcor=Fobsexp[(Aex+Aem)/2] (1);
in this formula, Fcor and Fobs represent corrected fluorescence signal and observed fluorescence signal, respectively, and Aex and Aem represent absorbance of the mixed solution to be tested at excitation wavelength and emission wavelengths, respectively; the quenching constant, number of binding sites, binding constant, free energy and binding distance of different drugs were obtained by fluorescence emission spectra, and a BP neural network model was obtained. Specifically, they were obtained as follows:
There is a linear relationship between F0/F and [Q] to distinguish whether it is static quenching or dynamic quenching. The fluorescence quenching data are analyzed by Stern-Volmer equation to clarify the quenching mechanism: F0/F=1+KSV[Q]=1+Kqτ0[Q] (2);
in the formula, F0 and F are fluorescence signals […] quencher, respectively. Ksv is Stern-Volmer quenching constant; Kq is a quenching rate constant of biomolecules; τ0 is the average lifetime of biomolecules without quencher (about 10^−8 s); [Q] is the concentration of quencher.
The maximum dynamic quenching rate constant of all kinds of quenchers on polymers was 2.0×10^10 L·mol^−1·s^−1. Static quenching and dynamic quenching could be judged according to this value. If K^q was greater than 2.0×10^10 L·mol^−1·s^−1, it belonged to static quenching. Otherwise, it belonged to dynamic quenching.
In this part, the binding sites and binding constants between carbamate pesticides and HSA were calculated. The following formula was used to calculate the number of binding sites (n) and the binding constant (Ka) of carbamate pesticides and HSA: log[(F0−F)/F]=log Ka+nlog[Q] (3);
The interactions between biological molecules and drug molecules were weak intermolecular interactions, including hydrogen bonds, van der Waals forces, electrostatic forces and hydrophobic interactions. By using Van't Hoff equation, the thermodynamic constants of drug-protein interaction were obtained, and the main types of drug-protein interaction were judged according to the changes of binding constants under different conditions. LnK=−ΔH^0/RT+ΔS^0/R (4); ΔG^0=ΔH^0−TΔS^0 (5);
There is a relationship among energy transfer efficiency E, distance r between energy donor and energy receptor and energy transfer distance R0. E=1−F/F0=R0^6/(R0^6+r^6) (6);
E represents the transfer efficiency between donor and receptor, r is the average distance between donor and receptor, and R0 is the critical distance when the transfer efficiency is 50%. R0^6=8.79×10^−K^2N^−4φJ (7)
K^2 is the orientation related to the geometry of donor and receptor of dipole. For random orientation in fluid, K^2=2/3; N is the average refractive index of the medium in the wavelength range with obvious spectral overlap, and the refractive index of water and organic matter is 1.336; φ is the quantum yield of donor, and the quantum yield of tryptophan in HSA is about 0.118; J represents the influence of spectral overlap between the emission spectrum of the donor and the absorption spectrum of the receptor, and can be calculated by the following formula: j=ΣF(λ)ϵ(λ)λ^4Δλ/ΣF(λ) Δλ (8);
F(λ) is the corrected fluorescence signal of the donor in the wavelength range from λ to (λ+Δλ), while ϵ(λ) is the extinction coefficient of the receptor at λ.

[2] = target: T1, human serum albumin (HSA); experiment: Circular dichroism spectrum, secondary structure (α-helix content) of HSA; conditions: HSA 2×10^−6 M
Procedure: the mixed solution to be tested was preheated at […] for 2-5 minutes, and the CD spectrum of HSA was recorded in the wavelength range of 200-500 nm . The concentration of HSA was kept at 2×10^−6 M, and the pesticide was (0-20)×10^−6 m. Firstly, HSA was measured, and then the ratio of HSA to pesticides needed to be determined specifically, which was preliminarily determined according to the ratio of 1:1, 1:2 and 1:3.
According to the following equation, the result of CD spectrum was usually expressed as the mean residue ellipticity (MRE), and the unit was deg·cm^2·dmol^−1. MRE=ObservedCD(mdeg)/(10Cpnl) (9);
in which Cp is the molar concentration of protein, n is the number (585) of amino acid residues, and 1 is the path length (1 mm). The α helicity of free and bound HSA is calculated from MRE values using the following formula: α−Helix(%)=[(−MRE208−4000)×100]/(33000-4000) (10)
in which the MRE208 is the MRE value observed at 208 nm , 4000 is the MRE value of random coil conformation at 208 nm , and […] is the MRE value of pure α helix at 208 nm .

[3] = cited from earlier work; for Toxicity: toxicity grade by LD50, trailing figure = number of pesticides in group; for LD50: modelling table
[4] = 296 K, pH 7.4, read-out: Ka (binding constant)
[5] = 303 K, pH 7.4, read-out: Ka (binding constant)
[6] = 310 K, pH 7.4, read-out: Ka (binding constant)

T1 sequence (P02768 25-609): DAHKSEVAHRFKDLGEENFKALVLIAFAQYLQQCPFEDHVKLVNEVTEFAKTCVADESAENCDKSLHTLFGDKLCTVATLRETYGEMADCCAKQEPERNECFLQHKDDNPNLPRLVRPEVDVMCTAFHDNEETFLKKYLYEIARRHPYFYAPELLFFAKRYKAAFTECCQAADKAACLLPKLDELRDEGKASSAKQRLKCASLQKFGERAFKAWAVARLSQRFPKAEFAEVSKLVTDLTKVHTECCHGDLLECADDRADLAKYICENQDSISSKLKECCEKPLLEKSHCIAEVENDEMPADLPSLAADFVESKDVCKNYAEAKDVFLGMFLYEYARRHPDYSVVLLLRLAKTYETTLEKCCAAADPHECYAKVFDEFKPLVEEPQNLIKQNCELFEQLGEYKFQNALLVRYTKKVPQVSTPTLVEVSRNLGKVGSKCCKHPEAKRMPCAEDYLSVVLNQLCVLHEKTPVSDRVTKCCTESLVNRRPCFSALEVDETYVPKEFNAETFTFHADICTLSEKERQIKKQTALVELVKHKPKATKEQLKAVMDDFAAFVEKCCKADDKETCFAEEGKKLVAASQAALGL

| Compound | Ksv (37°) ([1]; 37°, modelling table) | ΔG^0 ([1]; 296 K) [kJ/mol] | Kq ([1]; 296 K, pH 7.4) | Ksv ([1]; 296 K, pH 7.4) | n (number of binding sites) ([1]; 296 K, pH 7.4) | ΔG^0 ([1]; 303 K) [kJ/mol] | Kq ([1]; 303 K, pH 7.4) | Ksv ([1]; 303 K, pH 7.4) | n (number of binding sites) ([1]; 303 K, pH 7.4) | ΔG^0 ([1]; 310 K) [kJ/mol] | R (binding distance) ([1]; 310 K) [nm] | Kq ([1]; 310 K, pH 7.4) | Ksv ([1]; 310 K, pH 7.4) | n (number of binding sites) ([1]; 310 K, pH 7.4) | fluorescence of HSA quenched by pesticide ([1]; 310 K) | ΔH^0 [1] [kJ/mol] | ΔS^0 [1] [J · mol^−1 · K^−1] | Number of binding sites/n ([1]; modelling table) | α-helix contents ([2]; 5:1 (Pesticide:HSA)) [%] | α-helix contents ([2]; 10:1 (Pesticide:HSA)) [%] | further results |
| --- | --- | --- | --- | --- | --- | --- | --- | --- | --- | --- | --- | --- | --- | --- | --- | --- | --- | --- | --- | --- | --- |
| CNC(=O)O/N=C(\CS(C)(=O)=O)C(C)(C)C [Thiofanox-sulfone, thiofanox sulfone] | 55736.87796 and 53392.17364 | -18.004 | 3.906 ± 0.043 10^12 M^−1s^−1 | 3.906 ± 0.043 10^4 M^−1 | 0.719 ± 0.011 | -20.751 | 4.102 ± 0.034 10^12 M^−1s^−1 | 4.102 ± 0.034 10^4 M^−1 | 0.786 ± 0.008 | -23.497 | 2.907 | 5.574 ± 0.138 10^12 M^−1s^−1 | 5.574 ± 0.138 10^4 M^−1 | 0.848 ± 0.004 | quenched | 98.120 | 392.314 | 0.8476 and 0.7456 | 51.076 | 50.482 | Ka (binding constant) ([1]; 296 K, pH 7.4): (1.559 ± 0.162) × 10^3 M^−1; Ka (binding constant) ([1]; 303 K, pH 7.4): (3.514 ± 0.247) × 10^3 M^−1; Ka (binding constant) ([1]; 310 K, pH 7.4): (9.450 ± 0.597) × 10^3 M^−1; Toxicity [3]: Highly |
| CNC(=O)Oc1ccc(N(C)C)c(C)c1 [Aminocarb, aminocarb] | 39050.24214 | -15.553 | 3.151 ± 0.089 10^12 M^−1s^−1 | 3.151 ± 0.089 10^4 M^−1 | 0.649 ± 0.005 | -16.958 | 3.409 ± 0.059 10^12 M^−1s^−1 | 3.409 ± 0.059 10^4 M^−1 | 0.669 ± 0.006 | -18.364 | 2.215 | 3.905 ± 0.179 10^12 M^−1s^−1 | 3.905 ± 0.179 10^4 M^−1 | 0.699 ± 0.003 | quenched | 43.878 | 200.780 | 0.6985 | 49.862 | 49.082 | ΔG(37°) ([1]; 37°, modelling table): −18.36; Kd ([1]; 37°, modelling table, read-out: Ka (37°) (converted)): 786 µM; Kd [1, 4]: 1760 µM; Kd [1, 5]: 1250 µM; Kd [1, 6]: 786 µM; Binding distance/r ([1]; modelling table): 2.215; LD50 [3]: 30 mg/kg; Toxicity [3]: Highly |
| CNC(=O)ON=C(C)SC [Methomyl, methomyl] | 52883.69408 | -16.131 | 3.401 ± 0.068 10^12 M^−1s^−1 | 3.401 ± 0.068 10^4 M^−1 | 0.661 ± 0.003 | -18.633 | 4.025 ± 0.136 10^12 M^−1s^−1 | 4.025 ± 0.136 10^4 M^−1 | 0.727 ± 0.008 | -21.135 | 2.145 | 5.288 ± 0.093 10^12 M^−1s^−1 | 5.288 ± 0.093 10^4 M^−1 | 0.766 ± 0.002 | quenched | 89.675 | 357.453 | 0.7657 | 50.756 | 49.970 | ΔG(37°) ([1]; 37°, modelling table): −21.14; Kd [1, 4]: 1460 µM; Kd [1, 5]: 579 µM; Kd [1, 6]: 283 µM; Binding distance/r ([1]; modelling table): 2.145; LD50 [3]: 14.7 mg/kg; Toxicity [3]: Highly |
